Data from patent publication US20240059691A1 (KALVISTA PHARMACEUTICALS LIMITED, priority 2020, published 2024).

What was measured:
Human Factor XIIa = Human Factor XIIa (Homo sapiens (Human), UniProt P00748); assay: Determination of FXIIa inhibition (fluorogenic substrate H-DPro-Phe-Arg-AFC, IC50 assay); format: biochemical; conditions: substrate H-DPro-Phe-Arg-AFC at Km, 25° C.; class scale A-G
How it was run: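 IC50 derived from % remaining activity, taken as the linear fluorescence rate over a 5 min read at 25° C. Substrate H-DPro-Phe-Arg-AFC was used at its Km (Michaelis-Menten) with human FXIIa and serial compound dilutions, 25° C.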

Plasma Kallikrein = Plasma Kallikrein (Homo sapiens (Human), UniProt P03952); assay: Determination of related protease inhibition: Plasma Kallikrein (fluorogenic substrate at Km); format: biochemical; conditions: 25° C., read-out: IC50 (human PKal)
Chain of Plasma Kallikrein (P03952 391-638): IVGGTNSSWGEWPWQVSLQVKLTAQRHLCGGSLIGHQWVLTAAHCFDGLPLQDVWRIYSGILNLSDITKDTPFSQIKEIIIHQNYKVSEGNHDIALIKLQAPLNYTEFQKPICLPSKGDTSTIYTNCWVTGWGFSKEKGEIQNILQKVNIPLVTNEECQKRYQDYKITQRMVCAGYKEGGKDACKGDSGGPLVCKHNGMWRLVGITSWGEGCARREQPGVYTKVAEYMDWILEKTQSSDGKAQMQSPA
Chain of Plasma Kallikrein (P03952 20-390 partner): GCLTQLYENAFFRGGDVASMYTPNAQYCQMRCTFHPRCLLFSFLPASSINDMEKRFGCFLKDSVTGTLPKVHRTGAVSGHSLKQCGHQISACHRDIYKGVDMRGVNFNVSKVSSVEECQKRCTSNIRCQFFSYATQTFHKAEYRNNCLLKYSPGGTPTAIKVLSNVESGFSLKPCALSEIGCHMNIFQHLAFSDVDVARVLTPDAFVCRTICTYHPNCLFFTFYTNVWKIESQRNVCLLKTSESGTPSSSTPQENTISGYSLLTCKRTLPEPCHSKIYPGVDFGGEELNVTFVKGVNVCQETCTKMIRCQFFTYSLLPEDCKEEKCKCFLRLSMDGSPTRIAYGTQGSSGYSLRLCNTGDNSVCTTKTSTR
Method: Determination of Related Protease Inhibition
In vitro inhibition of related proteases was determined using an ([…] assay based on standard literature methods (see e.g. Shori et al., Biochem. Pharmacol., 1992, 43, 1209; Bouckaert et al., European Journal of Medicinal Chemistry 110 (2016) 181). Human serine protease enzymes Plasma Kallikrein, KLK1, FXa, Plasmin, Thrombin and Trypsin were assayed for enzymatic activity using an appropriate fluorogenic substrate at Km concentration, FXIa at fixed substrate concentration of 100 μM, and various concentrations of the test compound. Protease activity was measured by monitoring the accumulation of liberated fluorescence from the substrate over […]. The linear rate of fluorescence increase per minute was expressed as percentage (%) activity. IC50 values were calculated as the concentration of inhibitor giving 50% inhibition of the uninhibited enzyme activity (100%).

Chain of Human Factor XIIa (P00748 373-615): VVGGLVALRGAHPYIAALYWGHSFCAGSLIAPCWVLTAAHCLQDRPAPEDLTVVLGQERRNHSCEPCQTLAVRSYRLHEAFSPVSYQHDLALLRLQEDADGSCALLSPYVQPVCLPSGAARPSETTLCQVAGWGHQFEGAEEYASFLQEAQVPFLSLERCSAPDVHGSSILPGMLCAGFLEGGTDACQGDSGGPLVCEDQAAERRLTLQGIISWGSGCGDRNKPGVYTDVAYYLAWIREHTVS

Row | IC50 (Human Factor XIIa) [µM] | IC50 (Plasma Kallikrein) [µM] | SMILES
1 | 0.1 to 0.3 | 3 to 10 | Cc1cnc2n1CCC(COc1cc(CNc3cccc4c(N)nccc34)ccn1)C2 (single isomer, unassigned) [Example 4444, (S*)-N5-((2-((3-methyl-5,6,7,8-tetrahydroimidazo[1,2-a]pyridin-7-yl)methoxy)pyridin-4-yl)methyl)isoquinoline-1,5-diamine]
2 | 0.1 to 0.3 | 3 to 10 | Cc1cnc2n1CCC(COc1cc(CNc3cccc4c(N)nccc34)ccn1)C2 (single isomer, unassigned) [Example 4445, (R*)-N5-((2-((3-methyl-5,6,7,8-tetrahydroimidazo[1,2-a]pyridin-7-yl)methoxy)pyridin-4-yl)methyl)isoquinoline-1,5-diamine]
3 | 0.3 to 1 | 3 to 10 | Cc1cn2c(n1)CC(COc1cc(CNc3cccc4c(N)nccc34)ccn1)CC2 (single isomer, unassigned) [Example 4447, (R*)-N5-((2-((2-methyl-5,6,7,8-tetrahydroimidazo[1,2-a]pyridin-7-yl)methoxy)pyridin-4-yl)methyl)isoquinoline-1,5-diamine]
4 | 0.1 to 0.3 | 10 to 40 | Nc1ncc(Cl)c2cc(NCc3ccnc(OCC4CCCn5ccnc54)c3)ccc12 (single isomer, unassigned) [Example 4450, (S*)-4-chloro-N6-((2-((5,6,7,8-tetrahydroimidazo[1,2-a]pyridin-8-yl)methoxy)pyridin-4-yl)methyl)isoquinoline-1,6-diamine]
5 | 0.3 to 1 | > 40 | Nc1ncc(Cl)c2cc(NCc3ccnc(OCC4CCCn5ccnc54)c3)ccc12 (single isomer, unassigned) [Example 4451, (R*)-4-chloro-N6-((2-((5,6,7,8-tetrahydroimidazo[1,2-a]pyridin-8-yl)methoxy)pyridin-4-yl)methyl)isoquinoline-1,6-diamine]
6 | 3 to 10 | 10 to 40 | CN1CCC(Oc2ccc(CNc3ccc4ccnc(N)c4c3)cc2)CC1 [Example 1003, N7-(4-((1-methylpiperidin-4-yl)oxy)benzyl)isoquinoline-1,7-diamine]
7 | 10 to 40 | > 40 | CN1CCC(Oc2ccc(CNc3cnc4[nH]cc(Cl)c4c3)cc2)CC1 [Example 1004, 3-Chloro-N-(4-((1-methylpiperidin-4-yl)oxy)benzyl)-1H-pyrrolo[2,3-b]pyridin-5-amine]
8 | 3 to 10 | 10 to 40 | CN1CCC(OCc2ccc(COc3ccc4c(N)nccc4c3)cc2)CC1 [Example 1011, 6-((4-(((1-Methylpiperidin-4-yl)oxy)methyl)benzyl)oxy)isoquinolin-1-amine]
9 | 10 to 40 | > 40 | Nc1nccc2c(NCc3cnc(NCCC(=O)N4CCCC4)nc3)cccc12 [Example 1039, 3-[(5-{[(1-aminoisoquinolin-5-yl)amino]methyl}pyrimidin-2-yl)amino]-1-(pyrrolidin-1-yl)propan-1-one]
10 | 10 to 40 | > 40 | Nc1ncc(Cl)c2cc(NCc3cnc(NCCC(=O)N4CCCC4)nc3)ccc12 [Example 1040, 3-[(5-{[(1-amino-4-chloroisoquinolin-6-yl)amino]methyl}pyrimidin-2-yl)amino]-1-(pyrrolidin-1-yl)propan-1-one]
11 | 0.1 to 0.3 | > 4 | Nc1nccc2c(NCc3cnc(OCC4CCn5ccnc5C4)nc3)cccc12 (stereo not drawn) [Example 1042, 5-N-[(2-{5H,6H,7H,8H-imidazo[1,2-a]pyridin-7-ylmethoxy}pyrimidin-5-yl)methyl]isoquinoline-1,5-diamine]
12 | 0.3 to 1 | 3 to 10 | Nc1ncc(Cl)c2cc(NCc3cnc(NCC4CCn5ccnc5C4)nc3)ccc12 (stereo not drawn) [Example 1043, 4-chloro-6-N-{[2-({5H,6H,7H,8H-imidazo[1,2-a]pyridin-7-ylmethyl}amino)pyrimidin-5-yl]methyl}isoquinoline-1,6-diamine]
13 | 0.1 to 0.3 | 3 to 10 | Nc1ncc(Cl)c2cc(NCc3ccc(NCC4CCn5ccnc5C4)nc3)ccc12 (stereo not drawn) [Example 1044, 4-Chloro-N6-[[6-(5,6,7,8-tetrahydroimidazo[1,2-a]pyridin-7-ylmethylamino)-3-pyridyl]methyl]isoquinoline-1,6-diamine]
14 | 0.3 to 1 | > 40 | Nc1nccc2c(NCc3ccc(OC4CCn5ccnc5C4)nc3)cccc12 (stereo not drawn) [Example 1049, N5-[[6-(5,6,7,8-tetrahydroimidazo[1,2-a]pyridin-7-yloxy)-3-pyridyl]methyl]isoquinoline-1,5-diamine]
15 | 1 to 3 | > 40 | Nc1ncc(Cl)c2cc(NCc3ccc(OC4CCn5ccnc5C4)nc3)ccc12 (stereo not drawn) [Example 1050, 4-chloro-6-N-[(6-{5H,6H,7H,8H-imidazo[1,2-a]pyridin-7-yloxy}pyridin-3-yl)methyl]isoquinoline-1,6-diamine]
16 | 0.3 to 1 | > 40 | Nc1ncc(Cl)c2cc(NCc3cnc(OCC4CCn5ccnc5C4)nc3)ccc12 (stereo not drawn) [Example 1052, 4-Chloro-N6-[[2-(5,6,7,8-tetrahydroimidazo[1,2-a]pyridin-7-ylmethoxy)pyrimidin-5-yl]methyl]isoquinoline-1,6-diamine]
17 | 3 to 10 | 10 to 40 | Cc1cc(NCc2ccc(NCC3CCN(C)CC3)nc2)cc2ccncc12 [Example 1102, 8-methyl-N-((6-(((1-methylpiperidin-4-yl)methyl)amino)pyridin-3-yl)methyl)isoquinolin-6-amine]
18 | 10 to 40 | 10 to 40 | COc1cc(NCc2ccc(NCC3CCN(C)CC3)nc2)cc2ccncc12 [Example 1103, 8-methoxy-N-((6-(((1-methylpiperidin-4-yl)methyl)amino)pyridin-3-yl)methyl)isoquinolin-6-amine]
19 | 10 to 40 | > 40 | Cc1n[nH]c2c1CCC2Nc1ccc(CNc2ccc3c(N)ncc(Cl)c3c2)cn1 (stereo not drawn) [Example 1118, 4-chloro-6-N-{[6-({3-methyl-1H,4H,5H,6H-cyclopenta[c]pyrazol-6-yl}amino)pyridin-3-yl]methyl}isoquinoline-1,6-diamine]
20 | 10 to 40 | 10 to 40 | Cc1n[nH]c2c1CCC2Nc1ccc(CNc2cccc3c(N)nccc23)cn1 (stereo not drawn) [Example 1119, N5-((6-((3-methyl-1,4,5,6-tetrahydrocyclopenta[c]pyrazol-6-yl)amino)pyridin-3-yl)methyl)isoquinoline-1,5-diamine]
21 | 3 to 10 | > 40 | Nc1ncc(Cl)c2cc(NCc3ccc(N4CCn5ccnc5C4)nc3)ccc12 [Example 1129, 4-chloro-6-N-[(6-{5H,6H,8H-imidazo[1,2-a]pyrazin-7-yl}pyridin-3-yl)methyl]isoquinoline-1,6-diamine]
22 | 3 to 10 | > 40 | CC(C)(O)[C@@H]1CCN(c2ccc(CNc3cccc4c(N)nccc34)cn2)C1 [Example 1130, (R)-2-(1-(5-(((1-aminoisoquinolin-5-yl)amino)methyl)pyridin-2-yl)pyrrolidin-3-yl)propan-2-ol]
23 | 1 to 3 | 10 to 40 | CC(C)(O)[C@H]1CCN(c2ccc(CNc3cccc4c(N)nccc34)cn2)C1 [Example 1131, 2-[(3S)-1-[5-[[(1-Amino-5-isoquinolyl)amino]methyl]-2-pyridyl]pyrrolidin-3-yl]propan-2-ol]
24 | 3 to 10 | > 40 | Nc1nccc2c(NCc3ccc(N4Cc5nccn5C(CO)C4)nc3)cccc12 (stereo not drawn) [Example 1133, (7-(5-(((1-aminoisoquinolin-5-yl)amino)methyl)pyridin-2-yl)-5,6,7,8-tetrahydroimidazo[1,2-a]pyrazin-5-yl)methanol]
